Data on one molecule can be found in article PMC3060605 (Nature Communications, 2010).

In the assay the target is N1 (A/HongKong/156/97 (H5N1)) sialidase (Influenza A virus, UniProt Q9W7Y7). Briefly: biochemical.
N1 (A/HongKong/156/97 (H5N1)) sialidase, sequence (Q9W7Y7 whole entry, looked up): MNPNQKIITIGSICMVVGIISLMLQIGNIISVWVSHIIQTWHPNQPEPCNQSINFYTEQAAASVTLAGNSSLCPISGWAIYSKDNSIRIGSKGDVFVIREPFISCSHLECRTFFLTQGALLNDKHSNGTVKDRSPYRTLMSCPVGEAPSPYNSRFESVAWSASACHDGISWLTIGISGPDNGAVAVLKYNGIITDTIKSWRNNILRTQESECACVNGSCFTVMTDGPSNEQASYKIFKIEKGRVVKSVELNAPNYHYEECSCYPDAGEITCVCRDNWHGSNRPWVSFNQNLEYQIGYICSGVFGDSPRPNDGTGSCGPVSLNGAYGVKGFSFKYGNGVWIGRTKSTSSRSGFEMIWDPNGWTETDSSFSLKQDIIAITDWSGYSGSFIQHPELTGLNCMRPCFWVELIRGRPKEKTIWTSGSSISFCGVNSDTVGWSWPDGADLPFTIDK

Take `CC(=O)N[C@H]1[C@H]([C@H](O)[C@H](O)CO)OC(C(=O)O)=C[C@@H]1N=C(N)N` [Compound 1, zanamivir]: the affinity corresponds to a Ki of 0.17 nM.

The term Ki denotes the dissociation constant of the complex between target and ligand, obtained from inhibition or displacement. The low end stands for a stronger hold on the target, the high end for a looser hold on the target.
